A short description of series [1]: In vivo biodistribution of ^225Ac complexes of macropa and DOTA and of ^225Ac(NO3)3 in mice. On the set-up: species or system C57BL/6 mice. On the procedure:
In Vivo Biodistribution of ^225Ac Complexes of Macropa and DOTA. All experiments were approved by the Institutional Animal Care Committee (IACC) of the University of British Columbia and were performed in accordance with the Canadian Council on Animal Care Guidelines. A total of 9 female C57BL/6 mice (6-8 weeks old, 20-25 g) were used for the biodistribution study of each radiometal complex, n=3 for each time point.
Macropa (100 μL of a 1 mg/mL solution in NH4OAc) was diluted with 387 μL of NH4OAc (1 M, pH 7), and an aliquot (203 μL) of ^225Ac(NO3)3 (˜157 kBq) was then added; the pH of this solution was adjusted to 6.5-7 by the addition of 1 M NaOH (210 μL, trace metal grade). After 5 min at ambient temperature, the reaction solution was analyzed by TLC (0.4 M pH 4 sodium citrate as the eluent), which confirmed >95% radiochemical yield. The reaction was allowed to proceed overnight, and the radiochemical yield was again confirmed to be >95% the following morning. At this time, mice were anesthetized by 2% isoflurane, and approximately 100 μL (10-15 kBq) of the [^225Ac(macropa)]^+ complex were injected into the tail vein of each mouse. After injection, mice were allowed to recover and roam freely in their cages, and were euthanized by CO2 inhalation at 15 min, 1 h, or 5 h (n=3 at each time point) post-injection. Blood was collected by cardiac puncture and placed into an appropriate test tube for scintillation counting. Tissues collected included heart, liver, kidneys, lungs, small intestine, large intestine, brain, bladder, spleen, stomach, pancreas, bone, thyroid, tail, urine, and feces. Tissues were weighed and then counted with a calibrated gamma counter (Packard, Cobra II model 5002) using three energy windows: 60-120 keV (window A), 180-260 keV (window B), and 400-480 keV (window C). Counting was performed both immediately after sacrifice and after 7 days; counts were decay corrected from the time of injection and then converted to the percentage of injected dose (% ID) per gram of tissue (% ID/g). […]
The biodistribution studies of [^225Ac(DOTA)]^− and ^225Ac(NO3)3 were carried out as described above for [^225Ac(macropa)]^+, with the following modifications. [^225Ac(DOTA)^− was prepared by adding ^225Ac(NO3)3 (338 μL, 1.1 MBq) to a solution of DOTA (100 μg, 20 mg/mL in H2O) in NH4OAc (467 μL, 0.15 M, pH 7). The pH of the solution was adjusted to 7 using NH4OAc (150 μL, 1 M, pH 7) and the solution was heated at 85° C. for 45 min. RCY>99% was confirmed by TLC as described above. [^225Ac(DOTA)]^− was diluted with saline to a final concentration of 0.05 MBq/100 μL, and 100 μL were injected into each mouse. ^225Ac(NO3)3 (˜58 μL, 0.4 MBq) was diluted and injected in the same manner as [^225Ac(DOTA)]^−. One mouse that was to be euthanized at the 5 h time point in the [^225Ac(DOTA)]^− study died shortly after injection. In the same manner, one mouse that was to be euthanized at the 1 h time point in the ^225Ac(NO3)3 study died.
The in vivo stability [^225Ac(macropa)]^+ was examined by comparing its biodistribution to those of ^225Ac(NO3)3 and [^225Ac(DOTA)]^−. C57BL/6 mice were injected via tail vein with 10-50 kBq of each radiometal complex and were sacrificed after 15 min, 1 h, or 5 h. The amount of ^225Ac retained in each organ was quantified by gamma counting and reported as the percent of injected dose per gram of tissue (% ID/g). The results of these studies are compiled in Tables 1-3. Inadequate stability of an ^225Ac complex leading to the loss of radioisotope in vivo is manifested by the accumulation of ^225Ac in the liver, spleen, and bone of mice.^[11,12,32] […] The biodistribution profile of [^225Ac(macropa)]^+ (FIG. 3B) differs markedly from that of ^225Ac(NO3)3. […] Its biodistribution profile was similar to that of [^225Ac(DOTA)]^− (FIG. 3C), which has been previously shown to retain ^225Ac in vivo.^[7]

A short description of series [2]: Kinetic inertness of La^3+ and Lu^3+ complexes of macropa: transchelation challenge with EDTA/DTPA. Type of series: physicochemical. Particulars: in the presence of 1000 equiv of DTPA, pH 7.4, monitored 21 days by UV.
Description: Kinetic Inertness of La^3+ and Lu^3+ Complexes of Macropa: Transchelation Challenge. A stock solution of ethylenediaminetetraacetic acid (EDTA, 100 mM) was made in MOPS buffer (prepared as described above) by adjusting the pH of the initial suspension to 6.6 using aqueous NMe4OH.
The preformed La^3+ and Lu^3+ complexes of macropa were challenged with EDTA.
The complex formed in situ between La^3+ and macropa was more rigorously challenged with excess DTPA. A solution containing 500 μM of complex, prepared using the LaCl3 and macropa stock solutions described above, was left to equilibrate for 5 min.
Before assessing its Ac-chelation properties, complex formation was evaluated in situ between macropa and cold La^3+ and Lu^3+ ions.
Setting [3] is: 1 h after i.v. injection, energy window C (400-480 keV).
Setting [4] is: 5 h after i.v. injection, energy window A (60-120 keV).

For `O=[N+]([O-])[O-].O=[N+]([O-])[O-].O=[N+]([O-])[O-].[225Ac]` [^225Ac(NO3)3, reference compound], the “Organ distribution: feces” value in series [1] (15 min after i.v. injection, energy window A (60-120 keV)) came out at 0.240 % ID/g; in series [1] (1 h after i.v. injection, energy window B (180-260 keV)), 0.3300 % ID/g. In addition, the “Organ distribution: thyroids” value in series [1] (setting [3]) came out at 0.0000 % ID/g. Moreover, the “Organ distribution: brain” value was found to be 0.0290 % ID/g in series [1] (5 h after i.v. injection, energy window B (180-260 keV)) and 0.0430 % ID/g in series [1] (5 h after i.v. injection, energy window C (400-480 keV)). The “blood clearance and excretion (in words)” value in series [1] (i.v. injection, up to 5 h) is “slow blood clearance and excretion”. In addition, the “organ accumulation (in words)” value in series [1] (i.v. injection, up to 5 h) was “large accumulation in the liver and spleen”.
Turning to `O=C([O-])c1cccc(CN2CCOCCOCCN(Cc3cccc(C(=O)O)n3)CCOCCOCC2)n1.[La+3]` [La^3+ complex], the “time complex remained intact” value in series [2] is “up to 21 days”.
Consider `O=C([O-])CN1CCN(CC(=O)[O-])CCN(CC(=O)[O-])CCN(CC(=O)[O-])CC1.[225Ac+3]` [[^225Ac(DOTA)]^−, reference compound], for which the “Organ distribution: brain” value in series [1] (setting [3]) turned out to be 0.0380 % ID/g. Besides, in series [1] (setting [4]), the “Organ distribution: blood” value came to 0.0140 % ID/g and the “Organ distribution: lungs” value amounted to 0.0390 % ID/g.

(Values after patent US12258339B2, “Macrocyclic complexes of alpha-emitting radionuclides and their use in targeted radiotherapy of cancer” (Cornell University, priority 2018, dated 2025).)
